Columns and labels:
[1] = molecular target: T1, Serine/threonine-protein kinase Chk1 (Homo sapiens) (UniProt O14757); assay: Inhibition of human full length CHK1 expressed in baculovirus assessed as substrate phosphorylation using fluorescence-labelled peptides as substrate at 0.2 uM after 90 mins by microfluidic peptide phosphorylation assay
T1 sequence (whole entry): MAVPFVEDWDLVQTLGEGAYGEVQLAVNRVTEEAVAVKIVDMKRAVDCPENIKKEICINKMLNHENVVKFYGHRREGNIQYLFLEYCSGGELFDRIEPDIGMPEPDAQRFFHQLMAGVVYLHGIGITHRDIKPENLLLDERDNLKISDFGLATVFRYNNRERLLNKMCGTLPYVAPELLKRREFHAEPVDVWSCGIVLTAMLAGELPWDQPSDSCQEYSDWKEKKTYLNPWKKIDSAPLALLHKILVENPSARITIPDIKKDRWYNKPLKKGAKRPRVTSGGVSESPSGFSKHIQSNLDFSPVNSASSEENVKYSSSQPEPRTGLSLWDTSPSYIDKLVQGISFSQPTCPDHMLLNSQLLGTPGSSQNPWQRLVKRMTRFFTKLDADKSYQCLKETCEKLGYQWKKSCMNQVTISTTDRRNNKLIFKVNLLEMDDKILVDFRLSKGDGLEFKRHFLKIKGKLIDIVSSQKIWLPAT

[2] = molecular target: T2, Serine/threonine-protein kinase 3 (Homo sapiens) (UniProt Q13188); assay: Inhibition of human full length MST2 expressed in baculovirus assessed as substrate phosphorylation using fluorescence-labelled peptides as substrate at 8 uM after 90 mins by microfluidic peptide phosphorylation assay
T2 sequence (whole entry): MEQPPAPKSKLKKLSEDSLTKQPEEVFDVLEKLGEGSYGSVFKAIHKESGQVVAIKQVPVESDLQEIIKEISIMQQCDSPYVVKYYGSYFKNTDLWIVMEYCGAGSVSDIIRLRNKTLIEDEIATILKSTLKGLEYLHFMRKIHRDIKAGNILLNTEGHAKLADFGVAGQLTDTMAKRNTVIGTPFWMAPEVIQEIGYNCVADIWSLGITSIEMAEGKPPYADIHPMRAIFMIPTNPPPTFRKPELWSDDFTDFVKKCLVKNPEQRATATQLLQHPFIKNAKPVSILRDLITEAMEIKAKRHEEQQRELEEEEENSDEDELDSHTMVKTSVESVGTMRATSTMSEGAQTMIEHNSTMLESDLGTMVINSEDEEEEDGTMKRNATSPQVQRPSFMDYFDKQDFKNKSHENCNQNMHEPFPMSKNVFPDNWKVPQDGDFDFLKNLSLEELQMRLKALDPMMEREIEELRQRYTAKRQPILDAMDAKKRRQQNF

[3] = system: Fibroblast growth factor receptor 2 (Homo sapiens), P21802 [N549H]; assay: Inhibition of human FGFR2 N549H mutant catalytic domain expressed in baculovirus assessed as substrate phosphorylation using fluorescence-labelled peptides as substrate at 2 uM after 90 mins by microfluidic peptide phosphorylation assay
[4] = molecular target: Glycogen synthase kinase-3 beta (Homo sapiens) (UniProt P49841); assay: Inhibition of human full length GSK-3 beta expressed in baculovirus assessed as substrate phosphorylation using fluorescence-labelled peptides as substrate at 1000 uM after 90 mins by microfluidic peptide phosphorylation assay
[5] = molecular target: T3, Serine/threonine-protein kinase BRSK2 (Homo sapiens) (UniProt Q8IWQ3); assay: Inhibition of human truncated BRSK2 expressed in baculovirus assessed as substrate phosphorylation using fluorescence-labelled peptides as substrate at 1000 uM after 90 mins by microfluidic peptide phosphorylation assay
T3 sequence (whole entry): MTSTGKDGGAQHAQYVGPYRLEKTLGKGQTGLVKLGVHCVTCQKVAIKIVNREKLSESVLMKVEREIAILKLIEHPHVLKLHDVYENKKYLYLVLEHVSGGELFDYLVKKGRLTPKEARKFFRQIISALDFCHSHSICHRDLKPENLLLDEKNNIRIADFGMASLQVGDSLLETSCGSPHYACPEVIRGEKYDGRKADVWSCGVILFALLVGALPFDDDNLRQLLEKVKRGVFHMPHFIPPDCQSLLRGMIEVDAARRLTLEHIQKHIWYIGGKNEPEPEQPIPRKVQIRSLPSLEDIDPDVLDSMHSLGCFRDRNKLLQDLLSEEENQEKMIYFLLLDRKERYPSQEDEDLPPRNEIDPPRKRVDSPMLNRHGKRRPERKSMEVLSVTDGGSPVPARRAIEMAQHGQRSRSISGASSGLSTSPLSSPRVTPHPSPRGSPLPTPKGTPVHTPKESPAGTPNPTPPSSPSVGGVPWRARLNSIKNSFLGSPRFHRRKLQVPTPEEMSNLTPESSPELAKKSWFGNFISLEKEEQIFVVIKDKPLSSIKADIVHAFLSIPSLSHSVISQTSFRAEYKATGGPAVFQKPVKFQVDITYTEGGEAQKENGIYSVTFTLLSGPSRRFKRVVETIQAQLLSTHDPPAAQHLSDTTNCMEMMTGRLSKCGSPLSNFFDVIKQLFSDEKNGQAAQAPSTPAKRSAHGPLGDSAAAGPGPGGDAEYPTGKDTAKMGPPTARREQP

[6] = molecular target: Protein kinase C beta type (Homo sapiens) (UniProt P05771); assay: Inhibition of human full length PKC beta2 expressed in baculovirus assessed as substrate phosphorylation using fluorescence-labelled peptides as substrate at 0.06 uM after 90 mins by microfluidic peptide phosphorylation assay
[7] = molecular target: T4, Serine/threonine-protein kinase Sgk2 (Homo sapiens) (UniProt Q9HBY8); assay: Inhibition of human full length SGK2 expressed in baculovirus assessed as substrate phosphorylation using fluorescence-labelled peptides as substrate at 0.06 uM after 90 mins by microfluidic peptide phosphorylation assay
T4 sequence (whole entry): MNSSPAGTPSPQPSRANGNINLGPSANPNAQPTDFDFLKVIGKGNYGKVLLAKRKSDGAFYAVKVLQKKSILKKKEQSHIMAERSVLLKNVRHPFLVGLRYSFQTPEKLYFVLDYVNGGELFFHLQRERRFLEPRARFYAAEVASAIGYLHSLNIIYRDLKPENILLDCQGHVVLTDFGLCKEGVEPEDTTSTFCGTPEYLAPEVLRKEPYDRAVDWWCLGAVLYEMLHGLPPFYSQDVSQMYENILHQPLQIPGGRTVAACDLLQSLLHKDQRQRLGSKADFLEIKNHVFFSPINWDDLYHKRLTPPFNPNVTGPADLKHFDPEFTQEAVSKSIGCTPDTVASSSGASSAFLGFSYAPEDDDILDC

[8] = molecular target: Protein kinase C beta type (Homo sapiens) (UniProt P05771); assay: Inhibition of human truncated PKC beta1 expressed in baculovirus assessed as substrate phosphorylation using fluorescence-labelled peptides as substrate at […] after 90 mins by microfluidic peptide phosphorylation assay
[9] = molecular target: Fibroblast growth factor receptor 4 (Homo sapiens) (UniProt P22455); assay: Inhibition of human FGFR4 catalytic domain expressed in baculovirus assessed as substrate phosphorylation using fluorescence-labelled peptides as substrate at 9 uM after 90 mins by microfluidic peptide phosphorylation assay
[10] = molecular target: Mitogen-activated protein kinase 3 (Homo sapiens) (UniProt P27361); assay: Inhibition of human full length ERK1 expressed in Escherichia coli cell assessed as substrate phosphorylation using fluorescence-labelled peptides as substrate at 70 uM after 90 mins by microfluidic peptide phosphorylation assay
Mitogen-activated protein kinase 3 (Homo sapiens), sequence (P27361 whole entry): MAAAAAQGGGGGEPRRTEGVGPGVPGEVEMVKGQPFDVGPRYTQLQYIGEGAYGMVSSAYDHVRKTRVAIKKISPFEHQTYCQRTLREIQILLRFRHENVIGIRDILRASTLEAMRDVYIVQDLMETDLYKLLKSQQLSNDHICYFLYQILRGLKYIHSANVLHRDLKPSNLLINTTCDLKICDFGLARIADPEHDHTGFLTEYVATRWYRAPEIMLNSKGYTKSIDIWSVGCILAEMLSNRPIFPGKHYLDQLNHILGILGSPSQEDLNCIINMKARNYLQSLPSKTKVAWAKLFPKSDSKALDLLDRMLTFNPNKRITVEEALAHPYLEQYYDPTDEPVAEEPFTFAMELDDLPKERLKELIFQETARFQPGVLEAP

Protein kinase C beta type (Homo sapiens), sequence (P05771 2-671 limits assumed): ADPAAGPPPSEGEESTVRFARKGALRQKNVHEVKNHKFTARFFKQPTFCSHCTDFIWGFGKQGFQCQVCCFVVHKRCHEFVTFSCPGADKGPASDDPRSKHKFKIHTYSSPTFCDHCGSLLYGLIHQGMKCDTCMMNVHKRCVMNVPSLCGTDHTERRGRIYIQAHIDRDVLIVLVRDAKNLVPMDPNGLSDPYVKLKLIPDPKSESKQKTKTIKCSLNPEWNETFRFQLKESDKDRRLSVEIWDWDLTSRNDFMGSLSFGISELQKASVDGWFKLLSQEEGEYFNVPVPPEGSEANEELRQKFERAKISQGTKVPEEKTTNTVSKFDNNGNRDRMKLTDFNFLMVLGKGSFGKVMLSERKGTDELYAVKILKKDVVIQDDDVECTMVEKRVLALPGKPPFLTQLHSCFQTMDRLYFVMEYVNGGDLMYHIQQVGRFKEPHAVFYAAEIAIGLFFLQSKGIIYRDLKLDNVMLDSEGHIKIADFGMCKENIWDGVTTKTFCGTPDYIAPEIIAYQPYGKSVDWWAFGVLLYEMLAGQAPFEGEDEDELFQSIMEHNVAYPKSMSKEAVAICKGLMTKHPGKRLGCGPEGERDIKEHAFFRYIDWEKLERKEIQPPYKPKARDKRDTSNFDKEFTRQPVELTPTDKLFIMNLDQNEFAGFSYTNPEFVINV
Glycogen synthase kinase-3 beta (Homo sapiens), sequence (P49841 whole entry, looked up, the tested form may be a part): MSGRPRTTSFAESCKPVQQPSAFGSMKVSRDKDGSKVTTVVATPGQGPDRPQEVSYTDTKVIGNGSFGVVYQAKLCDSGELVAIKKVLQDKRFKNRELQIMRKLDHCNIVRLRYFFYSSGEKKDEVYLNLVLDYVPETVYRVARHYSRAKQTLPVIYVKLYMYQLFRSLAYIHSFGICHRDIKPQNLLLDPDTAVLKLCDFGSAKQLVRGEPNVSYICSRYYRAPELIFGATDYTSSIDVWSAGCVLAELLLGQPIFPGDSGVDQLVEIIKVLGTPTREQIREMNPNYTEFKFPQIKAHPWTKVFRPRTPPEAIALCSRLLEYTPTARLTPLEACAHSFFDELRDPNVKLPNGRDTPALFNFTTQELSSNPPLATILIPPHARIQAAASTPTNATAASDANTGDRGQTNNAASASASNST
Fibroblast growth factor receptor 4 (Homo sapiens), sequence (P22455 22-802 limits assumed): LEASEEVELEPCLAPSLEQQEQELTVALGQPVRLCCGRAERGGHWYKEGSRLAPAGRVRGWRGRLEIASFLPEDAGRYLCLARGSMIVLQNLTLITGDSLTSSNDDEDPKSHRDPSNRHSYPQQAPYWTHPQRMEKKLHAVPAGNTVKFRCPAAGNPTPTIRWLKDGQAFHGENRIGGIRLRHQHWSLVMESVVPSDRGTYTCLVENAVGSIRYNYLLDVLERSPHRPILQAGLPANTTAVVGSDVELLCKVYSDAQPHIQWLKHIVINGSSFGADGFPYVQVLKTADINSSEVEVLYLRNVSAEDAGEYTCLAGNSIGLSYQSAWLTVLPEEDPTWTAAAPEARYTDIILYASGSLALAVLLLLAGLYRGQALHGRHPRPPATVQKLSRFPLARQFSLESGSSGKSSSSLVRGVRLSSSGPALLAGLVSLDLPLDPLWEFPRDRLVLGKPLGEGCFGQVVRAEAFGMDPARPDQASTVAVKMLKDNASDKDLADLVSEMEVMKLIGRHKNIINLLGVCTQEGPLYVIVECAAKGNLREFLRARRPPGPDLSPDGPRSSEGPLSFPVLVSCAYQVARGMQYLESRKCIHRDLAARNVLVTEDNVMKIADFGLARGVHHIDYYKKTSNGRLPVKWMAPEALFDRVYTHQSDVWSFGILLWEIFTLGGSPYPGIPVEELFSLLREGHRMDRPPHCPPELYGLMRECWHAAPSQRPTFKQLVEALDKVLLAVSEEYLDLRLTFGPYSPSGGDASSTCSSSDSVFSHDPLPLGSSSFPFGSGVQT
Fibroblast growth factor receptor 2 (Homo sapiens), P21802 [N549H], sequence (P21802 whole entry N549H, the tested form may be a part): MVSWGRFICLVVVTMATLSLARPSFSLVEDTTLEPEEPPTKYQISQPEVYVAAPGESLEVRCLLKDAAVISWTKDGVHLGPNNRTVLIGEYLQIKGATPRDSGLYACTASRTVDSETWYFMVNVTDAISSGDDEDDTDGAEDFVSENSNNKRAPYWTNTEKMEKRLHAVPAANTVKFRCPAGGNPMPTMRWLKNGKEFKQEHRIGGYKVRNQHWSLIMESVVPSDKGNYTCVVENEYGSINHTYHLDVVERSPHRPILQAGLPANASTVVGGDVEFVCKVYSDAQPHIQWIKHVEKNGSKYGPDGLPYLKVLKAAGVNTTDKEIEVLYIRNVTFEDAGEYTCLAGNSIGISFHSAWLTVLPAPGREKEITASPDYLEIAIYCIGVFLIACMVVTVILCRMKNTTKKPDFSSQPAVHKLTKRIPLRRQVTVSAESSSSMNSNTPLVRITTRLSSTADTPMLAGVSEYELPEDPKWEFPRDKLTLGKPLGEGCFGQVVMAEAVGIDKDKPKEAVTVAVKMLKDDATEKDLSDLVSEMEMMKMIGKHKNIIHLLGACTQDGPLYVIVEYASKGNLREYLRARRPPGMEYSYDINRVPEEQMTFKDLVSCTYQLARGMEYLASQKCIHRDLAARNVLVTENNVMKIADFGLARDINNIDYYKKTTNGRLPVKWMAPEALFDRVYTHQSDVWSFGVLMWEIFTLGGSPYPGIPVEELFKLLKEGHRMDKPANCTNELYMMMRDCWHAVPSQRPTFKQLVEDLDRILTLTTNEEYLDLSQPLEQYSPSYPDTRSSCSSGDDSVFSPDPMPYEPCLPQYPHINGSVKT

## Clc1ccc(C2(c3ccc(-c4ncnc5[nH]cnc45)cc3)CCNCC2)cc1
[1]
  inhibition: 46%

## NCC1CCN(c2ncnc3[nH]ccc23)CC1
[2]
  inhibition: 73%

## NC1CCN(c2ncnc3[nH]ccc23)CC1
[3]
  inhibition: 1%

## c1cnc2[nH]ccc2c1
[4]
  inhibition: 32%
[5]
  inhibition: 28%

## NC1(Cc2ccc(Cl)cc2)CCN(c2ncnc3[nH]ccc23)CC1
[6]
  inhibition: 0%
[7]
  inhibition: 9%

## COC(=O)c1cnc(Nc2cnc(C#N)cn2)cc1NCC1CCNCC1
[8]
  inhibition: 2%

## NCC1CN(c2ncnc3[nH]c4cnccc4c23)CCO1 (stereo not given)
[9]
  inhibition: 0%

## CNCc1ccc(-c2ncnc3[nH]cnc23)cc1
[10]
  inhibition: 28.5%
